Test results reported in US8833457B2, “Sulfates and phosphates as allosteric effectors in mannanohydrolase enzyme breakers” (Baker Hughes Incorporated, priority 2011, dated 2014).

Tested on: mannanohydrolase, GBW-22C
Assay: Viscosity reduction of borate-crosslinked guar gel by mannanohydrolase enzyme breaker with allosteric effector (Chandler HTHP 5500 Viscometer)
Assay type: biochemical
Conditions: 150° F., 500 psi
Experimental: A solution was made comprising: 17 ppt of guar polymer, GW-3LDF; 1 gpt of clay stabilizer, Claytreat-3C; 1.5 gpt of buffer, BF-7L; 1 gpt of crosslinking agent, XLW-32; 1 gpt mannanohydrolase, GBW-22C, diluted 1/100 with distilled water; and 1 gpt of a 1% wt. solution of Na2SO4 (all components available from Baker Hughes Inc.). The solution was mixed with an overhead stirrer. 52 mL of crosslinked fluid was loaded on to a Chandler HTHP 5500 Viscometer and run at 500 psi, 150° F., and 100 s^−1 for an hour.
To compare the effects of phosphate and sulfate a solution was made comprising: 17 ppt of guar polymer, GW-3LDF; 1 gpt of clay stabilizer, Claytreat-3C; 1.5 gpt of buffer, BF-7L; 1 gpt of crosslinking agent, XLW-32; 1 gpt mannanohydrolase, GBW-22C, diluted 1/100 with distilled water; and 1 gpt of a 1% wt. solution of K2HPO4 (all components available from Baker Hughes Inc.).

## O=S(=O)([O-])[O-].[Na+].[Na+] [Na2SO4]
3 g/L versus 1 gpt 20% wt. Na2SO4 or 2 mg/L, 100 s^−1
  difference in enzyme activity between high and smaller concentrations of the effector (FIG. 3): does not appear to be a difference
17 ppt GW-3LDF guar, XLW-32 crosslinker, 1 gpt GBW-22C diluted 1/100, 1 gpt of 1% wt. Na2SO4, 100 s^−1, one hour
  effect of the effector on activity of the mannanohydrolase enzyme against the guar polymer (FIG. 3): drastically improves the activity of the mannanohydrolase enzyme
